Each structure is given as a SMILES string. Marks after values point to notes of the source that are not given here.

The subject of series [1] is MAO activities in rat brain mitochondria. Also noted: method as in PMID 11169165. Particulars: in vitro; cited from earlier work.
Series [2] addresses T1, recombinant hMAO-B (Homo sapiens, UniProt P27338).
T1 sequence (P27338 1-520): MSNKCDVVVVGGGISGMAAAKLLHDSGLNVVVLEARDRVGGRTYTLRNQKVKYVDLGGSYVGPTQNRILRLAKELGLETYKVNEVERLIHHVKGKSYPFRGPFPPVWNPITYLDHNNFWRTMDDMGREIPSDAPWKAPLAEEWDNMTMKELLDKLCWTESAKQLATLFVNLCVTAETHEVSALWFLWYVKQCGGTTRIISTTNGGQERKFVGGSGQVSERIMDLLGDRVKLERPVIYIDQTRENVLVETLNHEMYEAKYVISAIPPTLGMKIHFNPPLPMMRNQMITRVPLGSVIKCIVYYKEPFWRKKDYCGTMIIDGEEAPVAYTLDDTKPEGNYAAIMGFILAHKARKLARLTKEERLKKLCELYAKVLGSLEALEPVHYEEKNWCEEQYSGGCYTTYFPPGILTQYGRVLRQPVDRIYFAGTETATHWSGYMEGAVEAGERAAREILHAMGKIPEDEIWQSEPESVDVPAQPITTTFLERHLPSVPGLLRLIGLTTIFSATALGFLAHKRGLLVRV
As to the kind of experiment: hMAO-B inhibitory activity (Amplex Red MAO kit).
Method: (§2) In the control experiments, the test drugs were replaced with dilutions of the vehicles. In addition, the specific fluorescence emission was calculated after subtraction of the background activity, which was determined from wells containing all components except the hMAO isoforms that were replaced by a sodium phosphate buffer solution.

The subject of series [3] is brain homogenates of mice. Nature of the series: Ex vivo protein carbonyl groups in brain homogenates of haloperidol-treated mice. Details: species or system mouse. Particulars: 10 days, FCS005 50 mg/kg p.o., levodopa:carbidopa 400:40 mg/kg p.o., haloperidol 1 mg/kg i.p., compared to control animals. The protocol:
(§1) Antioxidant activity was evaluated ex vivo. Mice were administered daily for 10 days with the treatments FCS005 (50 mg/kg, p.o.), levodopa:carbidopa (400 mg/kg:40 mg/kg, p.o.) or vehicle (p.o.) followed by haloperidol (1 mg/kg, i.p.) 30 min later. Then, the animals were killed by decapitation and the brains were removed, washed in 1% KCl, dissected on an ice-cold plate, and homogenized in 50 mM Tris-HCl buffer (pH 7.4). Homogenates were centrifuged (10,000 rpm for 10 min at 4°C). The final supernatant was stored at -20°C. The protein content of each sample was determined by the Bradford method.
Quantification of protein carbonyl groups was determined by the technique of Levine, et al.[28], following the protocol described by Baltacioglu, et al.[29]. Briefly, 250 µL of 10 mM 2,4-dinitrophenylhydrazine (DNPH) or 250 µL of 2 M HCl were added to the brain homogenate (50 µL) for the sample or the blank, respectively. The samples were left at room temperature in the dark for 1 h and vigorously stirred every 15 min. Then, 500 µL of trichloroacetic acid (20%) was added. The samples were kept in an ice bath for 15 min and then centrifuged at 11,000 rpm for 5 min. […] The absorbance was determined at 360 nm. The content of carbonyl groups was calculated based on the molar extinction coefficient of DNPH (ε = 22 000 cm-1M-1) and expressed as nmol/mg protein [29].

Series [4] has as its system brain homogenates of mice. As to the kind of experiment: Ex vivo lipid peroxidation (TBARS) in brain homogenates of haloperidol-treated mice. Particulars: 10 days, FCS005 50 mg/kg p.o., levodopa:carbidopa 400:40 mg/kg p.o., haloperidol 1 mg/kg i.p., compared to control animals. Details: species or system mouse. As to the method: as §1
The index of lipid peroxidation was evaluated following the protocol described by Hijova, et al.[27]. The brain homogenate (450 µL), 1 mL trichloroacetic acid (10%), and 50 µL of 50 mM phosphate buffer (pH 7.4) were centrifuged at 1850 xg for 10 min at 4°C; then, 1 mL of thiobarbituric acid (0.67%) was added to 1 mL of the supernatant. This mixture was heated to 92°C for 30 min and then cooled in an ice bath (4°C) before the absorbance was measured at 532 nm. The results were expressed as thiobarbituric acid reactive substances (TBARS) in mmol/mL/mg of tissue protein.

The target of series [5] is T2, recombinant hMAO-A (Homo sapiens, UniProt P21397).
T2 sequence (P21397 1-527): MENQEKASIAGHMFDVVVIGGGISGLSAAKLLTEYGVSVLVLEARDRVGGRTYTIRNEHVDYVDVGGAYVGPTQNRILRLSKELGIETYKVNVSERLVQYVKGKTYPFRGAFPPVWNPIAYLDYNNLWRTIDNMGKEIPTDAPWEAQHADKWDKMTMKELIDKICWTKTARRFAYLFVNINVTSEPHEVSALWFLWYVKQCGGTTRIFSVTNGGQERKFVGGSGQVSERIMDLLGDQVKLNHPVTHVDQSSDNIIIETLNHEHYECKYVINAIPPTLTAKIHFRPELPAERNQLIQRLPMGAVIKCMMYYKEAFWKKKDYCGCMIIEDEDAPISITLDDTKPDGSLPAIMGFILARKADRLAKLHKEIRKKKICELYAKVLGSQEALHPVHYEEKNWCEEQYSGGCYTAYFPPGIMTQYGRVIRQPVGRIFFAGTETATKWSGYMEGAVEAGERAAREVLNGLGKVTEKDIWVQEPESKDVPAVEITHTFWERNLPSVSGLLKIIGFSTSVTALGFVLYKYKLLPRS
As to the kind of experiment: hMAO-A inhibitory activity (Amplex Red MAO kit).
Method: as §2

For series [6], the system named is male ICR mice. Nature of the series: Reserpine model, reversal of hypokinesia (open-field test). It counts as in vivo, mouse. Particulars: reserpine 3 mg/kg i.p., 100 mg/kg p.o.
Method: (§3) In the reserpine model and l-dopa/carbidopa assays, the locomotor activity was evaluated in the open-field test. The open field was a square arena divided into 16 squares with surrounding walls to prevent escape. Animals were placed individually in the middle of the open field and the specific parameter evaluated was the number of cadres traversed during 5 minutes. The open field was cleaned with a water-alcohol (10%) solution before placing the next animal to eliminate possible bias due to odors left by previous subjects.
The vehicle was a mixture of 15% propylene glycol, 15% glycerol, and enough distilled water to make up 100%. Locomotor activity was evaluated at 2 and 24 h after reserpine administration.
Series [7] deals with male ICR mice. As to the kind of experiment: L-dopa/carbidopa plus MAO-B inhibitors in mice pretreated with reserpine (open-field test). It counts as in vivo, mouse. Particulars: reserpine 3 mg/kg i.p., FCS005 100 mg/kg p.o. plus L-dopa:carbidopa 100:10 mg/kg i.p.
Method: as §3
Levodopa plus carbidopa were administrated i.p. 30 min later. Locomotor activity was evaluated at 2 and 24 h after the administration of reserpine.
Series [8] concerns male ICR mice. As to the kind of experiment: Motor activity in mice not pretreated with reserpine (open-field test). It counts as in vivo, mouse. The settings on record: 50 mg/kg p.o.
Method: We used male ICR mice six to seven weeks old (25 - 30 g) provided by the bioterium of the Departamento de Farmacia, Facultad de Ciencias, at Universidad Nacional de Colombia. The animals were kept under standard laboratory conditions, 12-hour light-dark cycles, and at room temperature (22 ± 1°C) with food and water available ad libitum.
The open field was a square arena divided into 16 squares with surrounding walls to prevent escape. Animals were placed individually in the middle of the open field and the specific parameter evaluated was the number of cadres traversed during 5 minutes. The open field was cleaned with a water-alcohol (10%) solution before placing the next animal to eliminate possible bias due to odors left by previous subjects.
Series [9] has as its system male ICR mice. As to the kind of experiment: Haloperidol-induced catalepsy, horizontal bar test. It counts as in vivo, mouse. Particulars: FCS005 100 mg/kg p.o. The protocol: Haloperidol was administered to the animals to induce rigidity and akinesia (catalepsy) [25]^,[26]. Catalepsy was defined as the prolonged maintenance of both forepaws in an atypical position on a horizontal bar.
The animals received haloperidol (3 mg/kg) i.p.; FCS005 (100 mg/kg, p.o.), levodopa:carbidopa (400 mg/kg:40 mg/kg; p.o.) or vehicle (p.o) was administrated 30 min before. The reversal of catalepsy was evaluated for 2 min 60 min after the administration of the treatments.

In the case of `O=c1ccc2cc3ccoc3cc2o1` [Psoralen], the “Inhibitory actions on MAO activities, isoform preference” value in series [1] is “preferentially inhibiting MAO-A activity over MAO-B activity”.
In the case of `Cc1coc2cc3oc(=O)ccc3cc12` [FCS005, 3-methyl-7H-furo[3,2-g]chromen-7-one], the IC50 – broadly, the concentration at which inhibition is half-maximal – in [2] was 41.6 ± 2.79 µM; in series [5], > 100 µM. Moreover, in [2] (MAO-B vs MAO-A), the “Selectivity of MAO inhibition” value is on record as “selective inhibitory activity towards MAO-B”. Moreover, in series [2] (hMAO-B selectivity ratio, for FCS005 hMAO-A IC50 assumed to be 100 µM (highest concentration tested)), the “Selectivity index [IC50 (hMAO-A)]/[IC50 (hMAO-B)]” value is reported as > 2.4^c. For the same compound, in series [3], the Protein carbonyl groups result was “lower”. For the same compound, the “Lipid peroxidation levels (TBARS)” value in [4] was “lower”. In addition, the “Inhibition of MAO-A isoform activity” value in series [5] (at the highest concentration tested (100 µM)) was “did not inhibit MAO-A isoform activity”. The “Reversal of hypokinesia produced by reserpine (number of cadres traversed)” value in series [6] (2 h after reserpine, p: 0.007 vs control) was “reversal of hypokinesia”; in series [6] (24 h after reserpine, p: 0.002 vs control), “reversal of hypokinesia”. The “Number of cadres traversed” value in series [7] (2 h after reserpine, p: 0.038 vs control) is recorded as “increased the number of cadres traversed”; in [7] (24 h after reserpine, p: 0.018 vs control) it was “increased the number of cadres traversed”. Further, the “Locomotor activity (number of cadres traversed in 5 min)” value is recorded as “significant decrease in the locomotor activity” in series [8] (at 2 hours, p: 0.023 vs control) and “significant decrease in the locomotor activity” in series [8] (at 24 hours, p: 0.003 vs control). Further, in [9] (haloperidol 3 mg/kg i.p., levodopa:carbidopa 400:40 mg/kg p.o., at 60 min, p: 0.001), the Total catalepsy time result is “significant decrease in the total catalepsy time”. Also, in series [9] (horizontal bar test), the “Cataleptic effects of the treatment itself” value is “did not show any cataleptic effects”.

The record behind these values is publication PMC7357371, “Coumarin analogue 3-methyl-7H-furo[3,2-g]chromen-7-one as a possible antiparkinsonian agent” (Biomédica, 2019).
